Experimental data reported in patent US20260217863A1, “ANTIBODY OR PEPTIDE BINDING SPECIFICALLY TO RNASE A, IMMUNOASSAY DEVICE AND METHOD FOR DETECTING RNASE A, AND METHOD FOR COLLECTING RNASE A” (UIF (University Industry Foundation), Yonsei University, priority 2022, published 2026).
pIC50: −log10 of the molar value. Where no end group is shown, it is not given here.

Key:
RNase A [1] = biological target: T1, RNase A (Bos taurus, UniProt P61823); test: RNA cleavage assay with total RNA from HeLa cells, agarose gel imaging; type: biochemical, bovine; parameters: Ribonuclease A (Type II-A) from bovine pancreas; purchased Sigma-Aldrich Korea; host or cells: bovine pancreas; details: RNase 0.7 μg/ml, agarose gel image analysis, read-out: IC50 for RNase A activity inhibition
T1 sequence (P61823 27-150): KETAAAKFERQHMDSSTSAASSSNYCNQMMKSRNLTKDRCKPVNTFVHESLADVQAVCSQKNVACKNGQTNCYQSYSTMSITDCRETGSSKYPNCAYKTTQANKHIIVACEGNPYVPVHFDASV
Experimental: The analysis of RNase inhibitory activity of Fv antibodies and synthetic peptides was performed using RNA samples extracted from HeLa cells as follows: (1) Mixing the RNA sample extracted from HeLa cells (600 ng) with 87.5 nM-5.6 μM under conditions of 37° C. for 30 minutes, (2) Electrophoresis on a 1% agarose gel at 90 V for 40 minutes. The estimation of RNase inhibitory activity was carried out by gel imaging of the cleaved RNA using a ChemiDoc XPS (Bio-Rad, CA, USA).
(§1) Using RNA samples extracted from HeLa cells, the RNase inhibitory activity of the synthesized peptides was estimated. The RNase inhibitory activity was assessed using agarose gel imaging of the cleaved RNA. To optimize the RNase concentration for the RNase inhibition assay, total RNA was treated with RNase A (600 ng), with RNase A concentrations ranging from 5.7 ng/ml to 3.6 μg/ml, and the cleaved RNA bands were observed after treatment with ETBR (ethidium bromide). […] The RNase concentration for inhibition analysis was determined to be 0.7 μg/ml, with RNase concentrations above 3.6 μg/ml. The inhibition analysis was performed by mixing total RNA from HeLa cells with RNase (0.7 μg/ml) and Fv-antibody at a concentration of 10 μM, resulting in the observation that the entire RNA was completely cleaved into small RNA bands in the absence of the Fv-antibody. […] The optimal concentration of the Fv-antibody for RNase inhibition was determined by the cleavage reaction with total RNA in the concentration range of 87.5 nM to 5.6 μM for Fv-antibodies (Fv-1, Fv-2, Fv-3).
The analysis of RNase inhibitory activity of Fv antibodies and synthetic peptides was performed using RNA samples extracted from HeLa cells as follows: (1) A mixture of RNA samples extracted from HeLa cells (600 ng) was prepared at concentrations of 87.5 nM-5.6 μM and incubated at 37° C. for 30 minutes; (2) Electrophoresis was conducted in a 1% agarose gel under 90 V for 40 minutes. The estimation of RNase inhibitory activity was carried out by gel imaging of the cleaved RNA using a ChemiDoc XPS (Bio-Rad, CA, USA).
as §1, with “the” for “the concentration”

RNase A [2] = biological target: T1, RNase A; test: RNase activity test kit, modified Taq-man RNA probe analysis (ab273299); type: biochemical; parameters: purchased Abcam ab273299; details: for inhibition at 1 µM: inhibitor 1 μM, after 60 minutes, positive control (no inhibitor) = 100%, read-out: relative inhibition level / reduction of RNase A activity; for RNase A activity reduced by: summary paragraph, peptide 1 μM, versus non-inhibitory condition (100%); for pIC50: synthetic peptides, RNA probe kit, linear regression
Experimental: The activity of RNase A, which degrades RNA, was evaluated using specially designed RNA probes. This RNase A analysis was performed using a commercial RNase activity test kit based on a modified Taq-man probe analysis (ab273299) from Abcam (Cambridge, UK). To compare inhibitory activity, three synthetic peptides (peptide-1, peptide-2, peptide-3) and three expressed Fv-antibodies (Fv-1, Fv-2, and Fv-3) were compared using two types of commercially available RNase inhibitors from Biofact™ (Daejeon, South Korea) and two types of RNaseOUT™ from Thermofisher (USA). The probes for the RNase inhibition analysis contained RNA probes with fluorescent dyes and quenching materials at each end of the RNA sequence. […] To estimate the RNase A inhibitory activity by the three synthesized peptides, each peptide was treated at a concentration of 1 μM using the analysis kit, and RNase activity was measured. The positive control was prepared to have an RNase reaction without an inhibitor, and the negative control was prepared to have an RNase reaction without the RNA probe. […] The RNase A inhibitory activity of the three synthesized peptides was analyzed after treating each peptide at a concentration range of 100 μM to 1 μM in the assay kit. […] The RNase A inhibitory activity of the three expressed Fv-antibodies was analyzed after treating each peptide at a concentration range of 100 μM to 1 μM in the analysis kit.
The activity of RNase A, which degrades RNA, was evaluated using specially designed RNA probes. This RNase A analysis was performed using a commercial RNase activity test kit based on a modified Taq-man probe analysis (ab273299) from Abcam (Cambridge, UK). For the comparison of inhibitory activity, three synthetic peptides (Peptide-1, Peptide-2, Peptide-3) and three expressed Fv-antibodies (Fv-1, Fv-2, and Fv-3) were compared using two types of commercially available RNase inhibitors from Biofact™ (Daejeon, South Korea) and two types of RNaseOUT™ from Thermofisher (USA). The probes for the RNase inhibition analysis contain RNA probes with fluorescent dyes and fluorescent quenchers at each end of the RNA nucleotide sequence.
To estimate the RNase A inhibitory activity of the three synthesized peptides, each peptide was treated at a concentration of 1 μM using an assay kit, and the RNase activity was evaluated. The positive control was prepared to have an RNase reaction without the inhibitor, while the negative control was prepared to have an RNase reaction without the RNA probe.
The RNase A inhibitory activity of the three synthesized peptides was analyzed after treating each peptide at a concentration range of 100 μM to 1 μM with the RNase A from the assay kit.

Row | pIC50 (RNase A [1]) | inhibition at 1 µM (RNase A [2]) [%] | RNase A activity reduced by (RNase A [2]) [%] | pIC50 (RNase A [2]) | Sequence
1 | 6.00 | 54.4 | 54.4 | 5.09 | CGPDSDVMTDF [Peptide-1]
2 | 6.33 | 50.3 | 50.3 | 6.40 | DGTAKKSRKDD [Peptide-3]

Row | Sequence | pIC50 (RNase A [1]) | inhibition at 1 µM (RNase A [2]) [%] | RNase A activity reduced by (RNase A [2]) [%] | pIC50 (RNase A [2])
3 | YGPVGRVKRDD [Peptide-2] | 6.18 | 53.2 | 53.2 | 5.44
